This experiment relates to MV-4-11 cells. The experiment is described as follows: Gene expression microarray analysis (Affymetrix PrimeView) and GSEA. Also on record: RFU PODN (11730768_x_at) / Fold change /veh PODN (11730768_x_at) / RFU LINC00158 (11744669_a_at) / Fold change /veh LINC00158 (11744669_a_at) / RFU DUSP10 (11751237_a_at) / Fold change /veh DUSP10 (11751237_a_at) / RFU ID3 (11757404_x_at) / Fold change /veh ID3 (11757404_x_at) / RFU PLEKHG5 (11737974_s_at) / Fold change /veh PLEKHG5 (11737974_s_at) / RFU LRRC4B (11730491_at) / Fold change /veh LRRC4B (11730491_at) / RFU GIMAP4 (11747438_a_at) / Fold change /veh GIMAP4 (11747438_a_at) / RFU KRT8 (11758183_x_at) / Fold change /veh KRT8 (11758183_x_at) / RFU CNN1 (11734310_a_at) / Fold change /veh CNN1 (11734310_a_at) / RFU VPS37D (11726825_at) / Fold change /veh VPS37D (11726825_at) / RFU C10orf10 (11716522_x_at) / Fold change /veh C10orf10 (11716522_x_at) / RFU KIR2DL2 /// KIR2DL4 /// KIR2DL5A /// KIR2DL5B /// KIR2DS1 /// KIR2DS2 /// KIR2DS3 /// KIR2DS4 /// KIR3DL3 /// KIR3DL3 /// KIR3DS1 (11738374_at) / Fold change /veh KIR2DL2 /// KIR2DL4 /// KIR2DL5A /// KIR2DL5B /// KIR2DS1 /// KIR2DS2 /// KIR2DS3 /// KIR2DS4 /// KIR3DL3 /// KIR3DL3 /// KIR3DS1 (11738374_at) / RFU C1QL1 (11718748_at) / Fold change /veh C1QL1 (11718748_at) / RFU TMPRSS4 (11747572_a_at) / Fold change /veh TMPRSS4 (11747572_a_at) / RFU HAMP (11756126_x_at) / Fold change /veh HAMP (11756126_x_at) / RFU RNFT2 (11725882_a_at) / Fold change /veh RNFT2 (11725882_a_at) / RFU NR4A2 (11747474_a_at) / Fold change /veh NR4A2 (11747474_a_at) / RFU ABCC12 (11746883_a_at) / Fold change /veh ABCC12 (11746883_a_at) / RFU TMEM136 (11760407_x_at) / Fold change /veh TMEM136 (11760407_x_at) / RFU CLDN22 /// WWC2 (11732394_at) / Fold change /veh CLDN22 /// WWC2 (11732394_at) / RFU HLA-DPB1 (11760878_x_at) / Fold change /veh HLA-DPB1 (11760878_x_at) / RFU SPINT1 (11716480_a_at) / Fold change /veh SPINT1 (11716480_a_at) / RFU GAP43 (11754022_s_at) / Fold change /veh GAP43 (11754022_s_at) / RFU A4GNT (11735810_at) / Fold change /veh A4GNT (11735810_at) / RFU PRB3 (11715151_x_at) / Fold change /veh PRB3 (11715151_x_at) / RFU TUBB4B (11761932_at) / Fold change /veh TUBB4B (11761932_at) / RFU CAPN14 (11732068_a_at) / Fold change /veh CAPN14 (11732068_a_at) / RFU TMCC2 (11721928_a_at) / Fold change /veh TMCC2 (11721928_a_at) / RFU IRGQ (11745062_a_at) / Fold change /veh IRGQ (11745062_a_at) / RFU FAM174B (11720279_a_at) / Fold change /veh FAM174B (11720279_a_at) / RFU TMPRSS4 (11748680_a_at) / Fold change /veh TMPRSS4 (11748680_a_at) / RFU FAM212B (11763350_a_at) / Fold change /veh FAM212B (11763350_a_at) / RFU PLEKHG5 (11743358_a_at) / Fold change /veh PLEKHG5 (11743358_a_at) / RFU ZSCAN30 (11745921_a_at) / Fold change /veh ZSCAN30 (11745921_a_at) / RFU CMKLR1 (11741424_a_at) / Fold change /veh CMKLR1 (11741424_a_at) / RFU LOC101060620 /// MAPK8IP1 (11723275_at) / Fold change /veh LOC101060620 /// MAPK8IP1 (11723275_at) / RFU SPTSSB (11747773_x_at) / Fold change /veh SPTSSB (11747773_x_at) / RFU PRSS12 (11739890_at) / Fold change /veh PRSS12 (11739890_at) / RFU BIN1 (11741810_x_at) / Fold change /veh BIN1 (11741810_x_at) / RFU WNT11 (11732464_a_at) / Fold change /veh WNT11 (11732464_a_at) / RFU C10orf10 (11716521_a_at) / Fold change /veh C10orf10 (11716521_a_at) / RFU C5orf56 (11738089_at) / Fold change /veh C5orf56 (11738089_at) / RFU CYB561 (11721691_x_at) / Fold change /veh CYB561 (11721691_x_at) / RFU ANKRD19P (11752326_a_at) / Fold change /veh ANKRD19P (11752326_a_at) / RFU OR2T12 /// OR2T33 /// OR2T8 (11738714_s_at) / Fold change /veh OR2T12 /// OR2T33 /// OR2T8 (11738714_s_at) / RFU VCAN (11748164_a_at) / Fold change /veh VCAN (11748164_a_at) / RFU JSRP1 (11732532_at) / Fold change /veh JSRP1 (11732532_at) / RFU KRTAP10-11 (11738290_x_at) / Fold change /veh KRTAP10-11 (11738290_x_at) / RFU MYO3A (11730013_a_at) / Fold change /veh MYO3A (11730013_a_at) / RFU EBF3 (11725865_a_at) / Fold change /veh EBF3 (11725865_a_at) / RFU CAMK2N1 (11719241_x_at) / Fold change /veh CAMK2N1 (11719241_x_at) / RFU C5orf56 (11738088_a_at) / Fold change /veh C5orf56 (11738088_a_at) / RFU OLFML3 (11715873_a_at) / Fold change /veh OLFML3 (11715873_a_at) / RFU LOC100653217 /// NTM (11731650_a_at) / Fold change /veh LOC100653217 /// NTM (11731650_a_at) / RFU MAPK11 (11762145_a_at) / Fold change /veh MAPK11 (11762145_a_at) / RFU FIZ1 (11724087_x_at) / Fold change /veh FIZ1 (11724087_x_at) / RFU OASL (11726364_x_at) / Fold change /veh OASL (11726364_x_at) / RFU SOX15 (11748057_x_at) / Fold change /veh SOX15 (11748057_x_at) / RFU CD79A (11719716_a_at) / Fold change /veh CD79A (11719716_a_at) / RFU HIST1H1D (11736915_at) / Fold change /veh HIST1H1D (11736915_at) / RFU CASKIN2 (11723855_a_at) / Fold change /veh CASKIN2 (11723855_a_at) / RFU LOC730098 (11760151_x_at) / Fold change /veh LOC730098 (11760151_x_at) / RFU OR4N2 (11742367_at) / Fold change /veh OR4N2 (11742367_at) / RFU PRRT2 (11749266_a_at) / Fold change /veh PRRT2 (11749266_a_at) / RFU SNX32 (11753110_a_at) / Fold change /veh SNX32 (11753110_a_at) / RFU CDHR5 (11726645_a_at) / Fold change /veh CDHR5 (11726645_a_at) / RFU RCAN1 (11760418_a_at) / Fold change /veh RCAN1 (11760418_a_at) / RFU FAM167A (11723789_a_at) / Fold change /veh FAM167A (11723789_a_at) / RFU FAM26E (11764081_at) / Fold change /veh FAM26E (11764081_at) / RFU ISYNA1 (11749810_s_at) / Fold change /veh ISYNA1 (11749810_s_at) / RFU ACY1 (11761880_at) / Fold change /veh ACY1 (11761880_at) / RFU 11764098_at / Fold change /veh 11764098_at / RFU SAMD14 (11745864_x_at) / Fold change /veh SAMD14 (11745864_x_at) / RFU NPB (11741838_a_at) / Fold change /veh NPB (11741838_a_at) / RFU TMPRSS6 (11731388_a_at) / Fold change /veh TMPRSS6 (11731388_a_at) / RFU KRTAP10-2 (11738614_at) / Fold change /veh KRTAP10-2 (11738614_at) / RFU ARHGAP8 /// PRR5-ARHGAP8 (11727945_x_at) / Fold change /veh ARHGAP8 /// PRR5-ARHGAP8 (11727945_x_at) / RFU KRTAP5-7 /// NADSYN1 (11734609_at) / Fold change /veh KRTAP5-7 /// NADSYN1 (11734609_at) / RFU RASL12 (11751679_a_at) / Fold change /veh RASL12 (11751679_a_at) / RFU CDKN2B (11736163_a_at) / Fold change /veh CDKN2B (11736163_a_at) / RFU PRF1 (11729649_at) / Fold change /veh PRF1 (11729649_at) / RFU, ZNF638 /// ZNF638-IT1 / Fold change vs veh, ZNF638 /// ZNF638-IT1 / RFU, PANK3 / Fold change vs veh, PANK3 / RFU, SH3YL1 / Fold change vs veh, SH3YL1 / RFU, ZEB2 / Fold change vs veh, ZEB2 / RFU, NRIP1 / Fold change vs veh, NRIP1 / RFU, PTTG1IP / Fold change vs veh, PTTG1IP / RFU, CAPN2 / Fold change vs veh, CAPN2 / RFU, MED14 / Fold change vs veh, MED14 / RFU, SNORA58 / Fold change vs veh, SNORA58 / RFU, C1orf63 / Fold change vs veh, C1orf63 / RFU, LRRFIP1 / Fold change vs veh, LRRFIP1 / RFU, NDUFAF7 / Fold change vs veh, NDUFAF7 / RFU, SLC12A2 / Fold change vs veh, SLC12A2 / RFU, IBTK / Fold change vs veh, IBTK / RFU, ESF1 / Fold change vs veh, ESF1 / Fold change vs veh, TMEM50B / RFU, TAOK1 / Fold change vs veh, TAOK1 / RFU, ACBD3 / Fold change vs veh, ACBD3 / RFU, TMA16 / Fold change vs veh, TMA16 / RFU, RWDD3 / Fold change vs veh, RWDD3 / RFU, BCAT1 / Fold change vs veh, BCAT1 / RFU, EDEM3 / Fold change vs veh, EDEM3 / RFU, TMEM33 / Fold change vs veh, TMEM33 / RFU, WDR75 / Fold change vs veh, WDR75 / RFU, AHCTF1 / Fold change vs veh, AHCTF1 / RFU, TFRC / Fold change vs veh, TFRC / RFU, ZDHHC17 / Fold change vs veh, ZDHHC17 / RFU, NOM1 / Fold change vs veh, NOM1 / RFU, ARL8B / Fold change vs veh, ARL8B / RFU, ZBTB11 / Fold change vs veh, ZBTB11 / RFU, TAMM41 / Fold change vs veh, TAMM41 / RFU, KIAA1704 /// LOC100996395 / Fold change vs veh, KIAA1704 /// LOC100996395 / RFU, ING1 / Fold change vs veh, ING1 / RFU, TRMT61B / Fold change vs veh, TRMT61B / RFU, FUBP3 / Fold change vs veh, FUBP3 / RFU, TP53 / Fold change vs veh, TP53 / RFU, TNKS2 / Fold change vs veh, TNKS2 / RFU, ZFP14 / Fold change vs veh, ZFP14 / RFU, ACTR2 / Fold change vs veh, ACTR2 / RFU, PPP3R1 / Fold change vs veh, PPP3R1 / RFU, PIK3R1 / Fold change vs veh, PIK3R1 / RFU, HNRNPA1 / Fold change vs veh, HNRNPA1 / RFU, RNF170 / Fold change vs veh, RNF170 / RFU, ZNF28 / Fold change vs veh, ZNF28 / RFU, RNGTT / Fold change vs veh, RNGTT / RFU, OGT / Fold change vs veh, OGT / RFU, BRD1 / Fold change vs veh, BRD1 / RFU, MARS / Fold change vs veh, MARS / RFU, ZNF655 / Fold change vs veh, ZNF655 / RFU, FAHD1 / Fold change vs veh, FAHD1 / RFU, BDP1 / Fold change vs veh, BDP1 / RFU, LRRCC1 / Fold change vs veh, LRRCC1 / RFU, ARID1A / Fold change vs veh, ARID1A / RFU, ZNF146 / Fold change vs veh, ZNF146 / RFU, ZNF330 / Fold change vs veh, ZNF330 / RFU, GPN3 / Fold change vs veh, GPN3 / RFU, C9orf123 / Fold change vs veh, C9orf123 / RFU, N4BP2L2 / Fold change vs veh, N4BP2L2 / RFU, ARFIP1 / Fold change vs veh, ARFIP1 / RFU, FAM179B / Fold change vs veh, FAM179B / RFU, BCL10 / Fold change vs veh, BCL10 / RFU, UHRF1BP1L / Fold change vs veh, UHRF1BP1L / RFU, BET1 / Fold change vs veh, BET1 / RFU, CNOT2 / Fold change vs veh, CNOT2 / RFU, ZNF268 / Fold change vs veh, ZNF268 / Fold change vs veh, ZNF507 / RFU, DGCR2 / Fold change vs veh, DGCR2 / RFU, WDSUB1 / Fold change vs veh, WDSUB1 / Fold change vs veh, HSP90B1 /// MIR3652 / RFU, ADSS / Fold change vs veh, ADSS / RFU, GK / Fold change vs veh, GK / RFU, ZNF148 / Fold change vs veh, ZNF148 / RFU, TAF9 / Fold change vs veh, TAF9 / RFU, SLC1A5 / Fold change vs veh, SLC1A5 / RFU, SLMO2 / Fold change vs veh, SLMO2 / RFU, ABCC4 / Fold change vs veh, ABCC4 / RFU, LOC101060439 /// RAP1B / Fold change vs veh, LOC101060439 /// RAP1B / RFU, RFX7 / Fold change vs veh, RFX7 / RFU, GTPBP10 / Fold change vs veh, GTPBP10 / RFU, CNEP1R1 / Fold change vs veh, CNEP1R1 / RFU, BIVM-ERCC5 /// ERCC5 / Fold change vs veh, BIVM-ERCC5 /// ERCC5 / RFU, ILF3 / Fold change vs veh, ILF3 / RFU 11762660_at / Fold change /veh 11762660_at / RFU VCAN (11757783_s_at) / Fold change /veh VCAN (11757783_s_at) / RFU DDX43 (11728927_at) / Fold change /veh DDX43 (11728927_at) / RFU KRT8 (11758188_x_at) / Fold change /veh KRT8 (11758188_x_at) / RFU NKD1 (11759106_at) / Fold change /veh NKD1 (11759106_at) / RFU SRD5A1 (11742802_a_at) / Fold change /veh SRD5A1 (11742802_a_at) / RFU TPSAB1 /// TPSB2 (11721975_s_at) / Fold change /veh TPSAB1 /// TPSB2 (11721975_s_at) / RFU GSTM3 (11746129_a_at) / Fold change /veh GSTM3 (11746129_a_at) / RFU IL23R (11737362_x_at) / Fold change /veh IL23R (11737362_x_at) / RFU TMEM51 (11727254_a_at) / Fold change /veh TMEM51 (11727254_a_at) / RFU PIWIL2 (11732686_x_at) / Fold change /veh PIWIL2 (11732686_x_at) / RFU ORM1 (11744905_x_at) / Fold change /veh ORM1 (11744905_x_at) / RFU CCDC152 (11743942_at) / Fold change /veh CCDC152 (11743942_at) / RFU ECM1 (11717891_a_at) / Fold change /veh ECM1 (11717891_a_at) / RFU IL23R (11748794_a_at) / Fold change /veh IL23R (11748794_a_at) / RFU TNFAIP8L3 (11732012_x_at) / Fold change /veh TNFAIP8L3 (11732012_x_at) / RFU MBOAT4 (11741988_at) / Fold change /veh MBOAT4 (11741988_at) / RFU 11764193_at / Fold change /veh 11764193_at / RFU TMEM53 (11763286_at) / Fold change /veh TMEM53 (11763286_at) / RFU MAGEB2 (11727129_at) / Fold change /veh MAGEB2 (11727129_at) / RFU TMEM200A (11744735_a_at) / Fold change /veh TMEM200A (11744735_a_at) / RFU CCDC152 (11751479_a_at) / Fold change /veh CCDC152 (11751479_a_at) / RFU FAM211A (11726209_a_at) / Fold change /veh FAM211A (11726209_a_at) / RFU RGS16 (11746705_a_at) / Fold change /veh RGS16 (11746705_a_at) / RFU VCAN (11755009_s_at) / Fold change /veh VCAN (11755009_s_at) / RFU RHOB (11743442_s_at) / Fold change /veh RHOB (11743442_s_at) / RFU RGS16 (11720943_a_at) / Fold change /veh RGS16 (11720943_a_at) / RFU RGS16 (11720944_at) / Fold change /veh RGS16 (11720944_at) / RFU, VPS4B / Fold change vs veh, VPS4B / RFU, CREB1 / Fold change vs veh, CREB1 / RFU, DNAJC13 / Fold change vs veh, DNAJC13 / RFU, GNAQ / Fold change vs veh, GNAQ / RFU, CDK5R1 / Fold change vs veh, CDK5R1 / RFU, ZRANB3 / Fold change vs veh, ZRANB3 / RFU, CUL4A / Fold change vs veh, CUL4A / RFU, CCNY / Fold change vs veh, CCNY / RFU, UFL1 / Fold change vs veh, UFL1 / RFU, COG3 / Fold change vs veh, COG3 / RFU, DIAPH2 / Fold change vs veh, DIAPH2 / RFU, SKA2 / Fold change vs veh, SKA2 / RFU, AFF3 / Fold change vs veh, AFF3 / RFU, LMF1 / Fold change vs veh, LMF1 / RFU, IPO11 / Fold change vs veh, IPO11 / RFU, DFFB / Fold change vs veh, DFFB / RFU, FOXP1 / Fold change vs veh, FOXP1 / RFU, CARD8 / Fold change vs veh, CARD8 / RFU, STRN3 / Fold change vs veh, STRN3 / RFU, ADK / Fold change vs veh, ADK / RFU, RASSF2 / Fold change vs veh, RASSF2 / RFU, WIPF1 / Fold change vs veh, WIPF1 / RFU, LARP1B / Fold change vs veh, LARP1B / RFU, RASA1 / Fold change vs veh, RASA1 / RFU, RB1 / Fold change vs veh, RB1 / RFU, PPFIA1 / Fold change vs veh, PPFIA1 / RFU, MAT2A / Fold change vs veh, MAT2A / RFU, CCT5 / Fold change vs veh, CCT5 / RFU, WDR92 / Fold change vs veh, WDR92 / RFU, CUX1 / Fold change vs veh, CUX1 / RFU, TTC7A / Fold change vs veh, TTC7A / RFU, TMEM135 / Fold change vs veh, TMEM135 / RFU, DEPTOR / Fold change vs veh, DEPTOR / RFU, CPM / Fold change vs veh, CPM / RFU, DNAJB6 / Fold change vs veh, DNAJB6 / RFU, CACNA2D3 / Fold change vs veh, CACNA2D3 / RFU, DTX4 / Fold change vs veh, DTX4 / RFU, TFCP2 / Fold change vs veh, TFCP2 / RFU, GMCL1 /// GMCL1P1 / Fold change vs veh, GMCL1 /// GMCL1P1 / RFU, AEBP2 / Fold change vs veh, AEBP2 / RFU, SNHG1 /// SNORD22 /// SNORD25 /// SNORD26 /// SNORD27 /// SNORD28 /// SNORD29 /// SNORD31 / Fold change vs veh, SNHG1 /// SNORD22 /// SNORD25 /// SNORD26 /// SNORD27 /// SNORD28 /// SNORD29 /// SNORD31 / Fold change (Aza/veh), C12orf56 (ProbeSet 11735607_a_at) / Fold change (ACY-1035/veh), C12orf56 (ProbeSet 11735607_a_at) / Fold change (Aza/veh), FGFR1OP (ProbeSet 11751329_s_at) / Fold change (ACY-1035/veh), FGFR1OP (ProbeSet 11751329_s_at) / Fold change (Aza/veh), VPS36 (ProbeSet 11739960_a_at) / Fold change (ACY-1035/veh), VPS36 (ProbeSet 11739960_a_at) / RFU SYPL1 (11715823_x_at) / Fold change /veh SYPL1 (11715823_x_at) / RFU IGFBP7 (11715501_s_at) / Fold change /veh IGFBP7 (11715501_s_at) / RFU REEP3 (11722064_at) / Fold change /veh REEP3 (11722064_at) / RFU IGLL1 (11728026_x_at) / Fold change /veh IGLL1 (11728026_x_at): dose or concentration left out as unconfirmed. To be noted: ProbeSet 11726661_s_at; LIST B. In kind it is cell-based, human.

Structures are written as SMILES.

For `Nc1ccc(-c2cccs2)cc1NC(=O)c1ccc2c(c1)cc(C1CC1)n2CCN1CCOCC1` [ACY-1035], the “Fold change vs veh, GPN3” value was determined as 0.89.

Source of the values: article PMC5218480 (PLoS ONE, 2017).
